Values of other authors as cited in patent US10526439B2, “High dielectric breakdown strength resins” (priority 2017, dated 2020).

Details: monomer property, Table IA; species and route not given

Structure (SMILES): C=Cc1ccc(C(C)(C)C)cc1 [Monomer 1, 4-tert butyl styrene]
- Toxicity LD50: >2000 mg/kg

Structure (SMILES): C=Cc1ccccc1 [STYRENE, styrene]
- Toxicity LD50: >2000 mg/kg
